Assays:
MRGPRX2 receptor = target: T1, MRGPRX2 receptor (Homo sapiens, UniProt Q96LB1); test: Fluo-4 calcium assay in MRGPRX2 expressing Chem-1 cells; type: cell-based; settings: Chem-1 cells, Fluo-4
T1 construct: host or cells: Chem-1 cells (G418-selected)
T1 sequence (Q96LB1 1-330): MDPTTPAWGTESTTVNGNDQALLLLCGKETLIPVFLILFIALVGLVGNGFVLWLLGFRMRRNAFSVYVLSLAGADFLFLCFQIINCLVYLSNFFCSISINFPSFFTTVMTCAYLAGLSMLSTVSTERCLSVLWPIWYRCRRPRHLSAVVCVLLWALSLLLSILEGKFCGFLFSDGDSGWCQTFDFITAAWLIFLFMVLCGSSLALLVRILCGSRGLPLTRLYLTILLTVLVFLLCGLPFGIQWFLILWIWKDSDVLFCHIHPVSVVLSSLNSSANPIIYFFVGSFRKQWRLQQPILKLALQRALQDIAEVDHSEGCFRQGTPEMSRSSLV

[1] = tested on: control (non-MRGPRX2 expressing) Chem-1 cells; settings: parent Chem-1 cells, Fluo-4
Protocol: MRGPRX2 expressing and control (non-MRGPRX2 expressing) Chem-1 cells lines were obtained from Discovery Services, EuroFins. Cells were cultured in Dulbecco's Modified Eagle Medium (DMEM) high glucose medium (4.5 g/L) with 10% fetal bovine serum (FBS), non-essential amino acids, and N-2-hydroxyethylpiperazine-N′-2-ethanesulfonic acid (HEPES) buffer (pH 7.0-7.6). Geneticin (G418) was used for selection of MRGPRX2-expressing Chem-1 cells. Cells were maintained at 37° C. at 5% CO2. Cells were seeded to a glass bottom 96-well plates at a density of 50,000 per well (Cellvis). Cells were loaded with Fluo-4 AM for 30 minutes at 37° C. at a concentration of 2.5 μM. Cells were washed once with Dulbecco's phosphate buffered saline (DPBS). Cells were rested at room temperature for 30 minutes before use and washed with DPBS. Cells were resuspended in 50 μl phosphate buffered saline (PBS) with calcium and magnesium. […] Plates were read immediately with a Biotek plate reader. Readings were taken every 6 seconds for 2 minutes.

For `C[C@H](CCC(=O)O)C[C@H](C)C[C@H](C)C(=O)/C=C(\O)[C@H](C)C[C@H](C)C/C=C/[C@@H](C)[C@@H](O)[C@@H](C)[C@@H](O)C[C@@H]1CC[C@@](C)([C@H]2CC[C@@](C)([C@@H](C)O)O2)O1` [Ionomycin], the “activation of the MRGPRX2 expressing cells (calcium mobilization)” value (MRGPRX2 receptor) was “generates a calcium response” and the “effect on cells lacking the MRGPRX2 receptor (calcium mobilization)” value [1] was “generates a calcium response”.
